Experiments:
[1] = Tween 20 aggregate conversion experiments (BN-PAGE); format: physicochemical; conditions: Tween 20 0.05%, 10 minutes, room temperature
Description: Tween® 20 Dose effect: 1 ug of purified KNH1144 SOSIP R6 trimer was incubated with varying concentrations of Tween® 20 (polyoxyethylene sorbitan monolaurate) ranging from 0 to 0.0001% (v/v) and incubated for 1 hour at room temperature. Following incubation, samples were analyzed by BN-PAGE as described above.
Kinetics of Tween® 20 effect: To ascertain the early kinetics of the Tween® 20 effect on aggregate, 1 ug of purified KNH1144 SOSIP R6 trimer was incubated with Tween® 20 at a final concentration of 0.05% (v/v) for 5 minutes and for 10 minutes. A no-detergent control was included separately for each timepoint.
Temperature dependance on Tween® 20 effect: To determine if temperature affected the ability of Tween® 20 to recover trimers from aggregates (i.e., collapse aggregate into trimer), 1 ug of purified KNH1144 SOSIP R6 trimer was incubated with Tween® 20 to a final concentration of 0.05% (v/v) at 0° C. […] Following the incubation, samples were analyzed by BN-PAGE and Coomassie staining.
Following the treatment, samples were analyzed by BN-PAGE and Coomassie staining.
Tween® 20 effect on -2-macroglogulin (a2M): 0.5 ug of purified -2-macroglobulin was either untreated or treated with Tween® 20 at a final concentration of 0.05% for 10 minutes at room temperature. Reactions were analyzed via BN-PAGE, followed by Coomassie staining.

[2] = DEAE anion exchange chromatography of Tween 20-treated trimers; format: physicochemical; conditions: Tween 20 treated (0.05%), TN-75 buffer
Description: Purified KNH1144 SOSIP R6 gp140 trimers, treated either with or without 0.05% Tween® 20 (final), containing a2M contaminant in TN-75 buffer was applied over 1 ml DEAE HiTrap FF column (equilibrated in TN-75) at 0.25 ml/min at RT and flow-through (FT) fractions were collected. Following sample loading, the column was washed with TN-75 at 0.5 ml/min and wash fractions were collected. Finally, the column was eluted with TN-300 and equal amounts from each fraction were analyzed via BN-PAGE, followed by Coomassie G-250 staining.

[3] = test system: JR-FL gp41 NT 1-5 Env-pseudotyped virus; format: cell-based, HIV-1 JR-FL; conditions: U87.CD4.CCR5 cells; in nM for T-20
Description: (§1) Pseudotyped virions bearing JR-FL envelope glycoproteins (WT and mutant) were produced by cotransfection of selected env clones with a luciferase-expressing reporter vector, pNL4-3Env(−)Luc(+), as described above. To measure infectivity, luciferase-expressing Env-pseudotyped viruses (50 μl) containing normalized amounts of p24 antigen were added to 3×10^3 U87.CD4.CCR5 cells/well. U87.CD4.CXCR4 cells were used as a negative control. After 4 days, th cells were lysed with 75 μl of 1× Glo lysis buffer (Promega, Calif.) for subsequent quantification of luciferase, which was expressed by the Env-pseudotyped virions that contain the gene for firefly luciferase inserted into the nef gene of HIV-1, using the Bright-Glo™ Luciferase Assay Substrate (Promega, Calif.) and a VICTOR3 1420 multilabel counter (Perkin Elmer Life Sciences, Mass.).
(§2) Neutralization of infectivity was performed as described previously (Trkola et al., 1998). The pseudovirions were incubated with an equal volume of various MAbs, CD4-IgG2, or T-20 for 1 hour at 37° C. before the residual infectivity was determined using U87.CD4.CCR5 cells as described above. The concentration of each inhibitor was expressed as the amount present after the inhibitor-virus mixture was added to the cells. The data were analyzed by non-linear regression (variable-slope sigmoidal dose response) to calculate the inhibitor concentrations that caused 50% reductions in luciferase expression (IC50), using the GraphPad Prism 4 software (maximal viral production in the absence of inhibitor was designated as 100%).

[4] = test system: JR-FL WT Env-pseudotyped virus; format: cell-based, HIV-1 JR-FL
Description: as §1, §2

a2M: acidic 726 kDa tetrameric glycoprotein, contaminant/control protein
effect of Tween 20 on BN-PAGE migration [1]: No change was observed in the migratory pattern | binding to DEAE column [2]: bound to the DEAE column

enfuvirtide
IC50 [3]: 11.5 nM | IC50 against WT Env-pseudotyped virus greater than against the mutant [4]: 2 fold | IC50 ([4]; U87.CD4.CCR5 cells, in nM for T-20): 24.2 nM

— patent US7939083B2, “Soluble, stabilized, proteolytically cleaved, trimeric HIV-1 gp140 proteins comprising modifications in the N-terminus of the gp41 ectodomain” (Progenics Pharmaceuticals Inc., priority 2006, dated 2011)
